Source: US7781393B2, “Methods for inhibiting tumor cell growth” (Dana-Farber Cancer Institute, Inc., priority 2004, dated 2010)

Experiments:
Assay type in all cases: cell-based, human
[1] = system: 58 hematologic and solid tumor cell lines; assay: MTT colorimetric survival assay, panel of hematologic and solid tumor cell lines; details: all cell lines; 0-10 μM for 72 hours
primary MM tumor cells = assay: MTT survival assay, short-term culture of primary MM tumor cells; details: all primary patient samples tested
Source text: The dexamethasone (Dex)-sensitive parental line MM-1S and its Dex-resistant subline MM-1R cells were kindly provided by Dr Steven Rosen (Northwestern University, Chicago, Ill.); the chemo-sensitive parental MM cell line RPMI-8226/S, and its chemo-resistant sublines RPMI-8226/Dox40 (doxorubicin-resistant), RPMI-8226/MR20 (mitoxantrone-resistant), RPMI-8226/LR5 (melphalan-resistant) cells were kindly provided by Dr William Dalton (lee Moffitt Cancer Center, Tampa, Fla.); the OCI-My5 cells were provided by Dr Meissner (University of Ontario, Toronto, Canada); the EJM, LP-1, KMM1, K620, OPM-1, and OPM-2 cells were provided by Dr Leif Bergsagel; INA-6 cells were provided by Renate Burger (University of Erlangen-Nuernberg, Germany); XG-1 cells were obtained from Dr Pierfrancesco Tassone (University of Magna Grecia, Italy); NCI-H929 and U266 cells were purchased from American Type Cell Culture (ATCC); MM-1S-myrAkt and MM-1S-Bcl-2 cells were established by stable transfection of MM-1S cells with constructs encoding for constitutively active myristoylated form of Akt and for Bcl-2, respectively. […] Purity (>95%) was assessed by both morphology and flow cytometry (Becton-Dickinson FACSort, Franklin Lakes, N.J.). […]

INA-6 MM cells = assay: MTT assay of responsiveness to IL-6; details: co-treatment 500 nM, serum, 72 hours
Description: (§1) Cell survival of IGF-1R inhibitor-treated cells was examined using the 3-(4,5-Dimethylthiazol-2-yl)-2,5-Diphenyltetrazolium Bromide (MTT) calorimetric assay. […] At the end of each treatment, cells were incubated with 1 mg/ml MTT for 4 hours at 37° C.; a mixture of isopropanol and 1N HCl (23:2, v/v) was then added under vigorous pipetting to dissolve the formazan crystals. Dye absorbance (A) in viable cells was measured at 570 nm, with 630 nm as a reference wavelength. Cell survival was estimated as a percentage of the value of untreated controls. All experiments were repeated at least three times, and each experimental condition was repeated at least in quadruplicate wells in each experiment.

[2] = system: PC-3 prostate cancer cells; assay: MTT assay of responsiveness to IL-6; details: co-treatment 500 nM, serum, 72 hours
Description: as §1

[3] = system: SW579 papillary thyroid carcinoma cells; assay: VEGF ELISA, IGF-1-stimulated thyroid carcinoma cells; details: 750 nM; IGF-1 200 ng/mL in serum-free medium
Description: Flow cytometric analyses for IGF-1R, and IGF-2R were performed as previously described on a EPICS-XL-MCL flow cytometer (Beckman Coulter). Previously described protocols were applied for immunoblotting analyses; TRAP telomerase activity assay; 20S proteasome chymotryptic activity assay; DNA binding activity ELISAs for quantitative assessments of NF-κB and HIF-1a transcriptional activities. VEGF and IGF-1 ELISAs were performed according to manufacturer's instructions (R&D Systems, Minneapolis, Minn.).

Nc1ncnc2c1c(-c1cccc(OCc3ccccc3)c1)cn2[C@H]1C[C@H](CN2CCCC2)C1 [ADW-742, trans-5-(3-benzyloxy-phenyl)-7-(3-pyrrolidin-1-ylmethyl-cyclobutyl)-7H-pyrrolo[2,3-d]pyrimidin-4-ylamine]
inhibition of serum-induced cell growth [1]: Dose-dependent inhibition | serum-induced growth of primary MM patient samples (primary MM tumor cells): completely suppresses | responsiveness to IL-6 (INA-6 MM cells): abrogated | responsiveness to IL-6 [2]: abrogated | IGF-1-induced secretion of VEGF [3]: suppresses
